For assay [1], the target named is T1, 5-hydroxytryptamine receptor 1A (Homo sapiens, UniProt P08908).
T1 sequence (P08908 whole entry): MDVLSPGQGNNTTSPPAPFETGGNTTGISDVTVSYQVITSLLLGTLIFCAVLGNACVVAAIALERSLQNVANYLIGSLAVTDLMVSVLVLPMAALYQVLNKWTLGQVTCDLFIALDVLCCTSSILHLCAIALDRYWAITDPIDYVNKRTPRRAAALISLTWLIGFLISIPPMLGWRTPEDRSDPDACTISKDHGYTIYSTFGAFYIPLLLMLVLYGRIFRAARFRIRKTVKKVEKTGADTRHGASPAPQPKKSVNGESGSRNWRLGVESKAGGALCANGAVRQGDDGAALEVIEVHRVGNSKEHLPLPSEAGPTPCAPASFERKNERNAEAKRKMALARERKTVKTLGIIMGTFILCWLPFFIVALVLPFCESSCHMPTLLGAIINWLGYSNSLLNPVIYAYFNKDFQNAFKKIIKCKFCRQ
The experiment in a line: The compound was evaluated for its ability to displace [3H]-8-OH-DPAT from 5-hydroxytryptamine 1A receptor in cellular brain membranes.

Assay [2] deals with 5-hydroxytryptamine receptor 1B (Homo sapiens, UniProt P28222). Briefly: The compound was evaluated for its ability to displace [3H]5-HT from 5-hydroxytryptamine 1B receptor in cellular brain membranes.
The target of assay [3] is Serotonin 2 (5-HT2) receptor (Homo sapiens, UniProt P28223+P28335+P41595). The experiment in a line: The compound was evaluated for its ability to displace [3H]ketanserin from 5-hydroxytryptamine 2 receptor in cellular brain membranes.
Sequence of Serotonin 2 (5-HT2) receptor (P28223 whole entry): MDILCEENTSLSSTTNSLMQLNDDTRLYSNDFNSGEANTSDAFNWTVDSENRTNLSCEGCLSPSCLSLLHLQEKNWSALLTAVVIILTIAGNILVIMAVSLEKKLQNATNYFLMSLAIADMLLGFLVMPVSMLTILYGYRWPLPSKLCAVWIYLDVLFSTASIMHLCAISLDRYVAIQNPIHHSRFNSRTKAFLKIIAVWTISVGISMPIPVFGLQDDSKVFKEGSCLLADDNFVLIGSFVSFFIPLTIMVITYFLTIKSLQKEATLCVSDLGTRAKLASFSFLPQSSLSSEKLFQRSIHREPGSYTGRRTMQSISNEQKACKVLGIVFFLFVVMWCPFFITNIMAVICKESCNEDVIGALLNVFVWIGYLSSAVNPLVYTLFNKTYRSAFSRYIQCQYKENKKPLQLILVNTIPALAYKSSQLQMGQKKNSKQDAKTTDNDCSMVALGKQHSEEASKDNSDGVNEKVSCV
Sequence of Serotonin 2 (5-HT2) receptor (P41595 whole entry): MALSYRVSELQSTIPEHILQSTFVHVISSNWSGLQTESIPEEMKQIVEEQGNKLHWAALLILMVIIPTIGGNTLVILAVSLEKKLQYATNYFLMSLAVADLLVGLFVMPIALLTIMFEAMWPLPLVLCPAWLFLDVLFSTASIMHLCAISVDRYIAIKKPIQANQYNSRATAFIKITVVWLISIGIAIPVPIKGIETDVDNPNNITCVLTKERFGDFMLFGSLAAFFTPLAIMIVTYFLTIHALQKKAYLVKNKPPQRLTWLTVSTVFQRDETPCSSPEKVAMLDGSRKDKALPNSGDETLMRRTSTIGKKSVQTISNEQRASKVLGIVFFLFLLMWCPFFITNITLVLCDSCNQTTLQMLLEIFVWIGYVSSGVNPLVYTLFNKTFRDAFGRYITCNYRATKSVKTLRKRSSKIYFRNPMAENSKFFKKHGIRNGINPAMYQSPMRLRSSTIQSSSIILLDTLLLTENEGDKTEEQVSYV
Sequence of Serotonin 2 (5-HT2) receptor (P28335 whole entry): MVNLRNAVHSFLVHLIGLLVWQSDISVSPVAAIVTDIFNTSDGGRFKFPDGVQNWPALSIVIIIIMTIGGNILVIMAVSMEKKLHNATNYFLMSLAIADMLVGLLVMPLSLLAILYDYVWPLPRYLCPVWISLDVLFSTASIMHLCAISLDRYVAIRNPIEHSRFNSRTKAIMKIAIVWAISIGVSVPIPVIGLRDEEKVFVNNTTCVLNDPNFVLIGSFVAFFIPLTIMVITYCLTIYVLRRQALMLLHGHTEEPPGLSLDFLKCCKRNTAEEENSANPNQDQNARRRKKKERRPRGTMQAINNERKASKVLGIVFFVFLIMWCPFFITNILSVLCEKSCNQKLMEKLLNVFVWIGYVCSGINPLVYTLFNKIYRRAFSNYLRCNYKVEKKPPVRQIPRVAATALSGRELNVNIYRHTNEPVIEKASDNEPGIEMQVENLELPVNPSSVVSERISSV

Sequence of 5-hydroxytryptamine receptor 1B (P28222 whole entry): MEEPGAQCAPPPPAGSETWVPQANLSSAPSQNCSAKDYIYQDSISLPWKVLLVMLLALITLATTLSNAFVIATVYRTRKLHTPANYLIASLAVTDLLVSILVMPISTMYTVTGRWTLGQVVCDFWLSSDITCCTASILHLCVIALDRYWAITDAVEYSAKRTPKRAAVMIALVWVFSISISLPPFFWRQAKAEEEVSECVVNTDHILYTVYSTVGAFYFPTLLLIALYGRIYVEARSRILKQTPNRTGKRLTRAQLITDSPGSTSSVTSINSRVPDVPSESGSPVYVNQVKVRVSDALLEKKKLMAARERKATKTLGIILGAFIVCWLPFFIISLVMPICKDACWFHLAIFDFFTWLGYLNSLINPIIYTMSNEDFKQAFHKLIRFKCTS

As a reminder, the IC50 is the concentration that gives 50% inhibition. Higher therefore signals a need for much substance. As for `CCCN(CCCCNC(=O)c1cc(=O)oc2c3c4c(cc12)CCCN4CCC3)C1COc2cccc(OC)c2C1` (stereo not given), the results for the IC50 in assay [1], in assay [2] and in assay [3] were 0.3 nM, 9 nM and 15 nM, respectively.
The matching figures for `CCCN(CCCCNc1ccc([N+](=O)[O-])c2nonc12)C1COc2cccc(OC)c2C1` (stereo not given): 100 nM, 340 nM and 18000 nM.
On to `CCCN(CCCCN1C(=O)c2ccccc2S1(=O)=O)C1COc2cccc(OC)c2C1` (stereo not given) [2-{4-[(5-Methoxy-chroman-3-yl)-propyl-amino]-butyl}-1,1-dioxo-1,2-dihydro-1lambda*6*-benzo[d]isothiazol-3-one; compound with oxalic acid], for which the IC50 is 1 nM in assay [1], 1000 nM in assay [2] and 10000 nM in assay [3].
On the same counts, the results for `CCCN(CCCCN1C(=O)c2ccccc2C1=O)C1COc2cccc(OC)c2C1` (stereo not given) [2-{4-[(5-Methoxy-chroman-3-yl)-propyl-amino]-butyl}-isoindole-1,3-dione; compound with oxalic acid] are 50 nM, 400 nM and 30000 nM.
The matching figures for `CCCN(CCCCN1C(=O)CC2(CCCC2)CC1=O)C1COc2cccc(OC)c2C1` (stereo not given) [NSC_121851]: 0.2 nM, 5000 nM and 10 nM.

Values taken from BindingDB's records for doi:10.7270/Q27D2X8F (n/a, 1993).
